Reference: publication PMC7576608, “Mechanisms of telomerase inhibition by oxidized and therapeutic dNTPs” (Nature Communications, 2020)
Where “and” joins values, the source holds several entries; their conditions need not be identical. Identical values can stand only once. Like-named read-outs stand apart in the source and are kept apart here.

Biological target: telomerase (Homo sapiens, UniProt O14746)
Assay: Telomerase repeat processivity IC50: modified dNTP titrated into reactions with all four natural dNTPs
Type: biochemical
Design: made in house; anti-FLAG immunopurification, eluted with 3xFLAG peptide
Conditions: for YIntercept (line fit of ln(100-%LB) vs # telomere repeats) / ln(100-%LB): n1-n3; for Processivity R 1/2: replicates n1-n3
Text: In order to better understand the ability of modified dNTPs to compete with natural dNTPs for telomerase utilization, we added modified dNTPs to reactions containing all four natural dNTPs. […] The calculated IC50 determines the concentration required to reduce repeat processivity in the bulk reactions by half. However, it is important to note that bulk experiments cannot distinguish effects on individual telomeres, since extended telomeres mask unextended telomeres. Incorporation of a chain terminator during any step will terminate extension of the affected telomere, and just five critically short telomeres are sufficient to trigger senescence. Therefore, repeat processivity IC50 values are not necessarily an indicator of the inhibitory potency, but provide information on selectivity for modified dNTPs compared to natural dNTPs. […] The ability to purify sufficient quantities of tcTERT enables characterization of the catalytic nucleotide addition by pre-steady-state single turnover kinetics using a defined DNA–RNA primer–template substrate. The catalytic efficiency of incorporating a single dNTP is measured by dividing the observed nucleotide incorporation rate constant, kpol, by the equilibrium dissociation constant for dNTP binding to the tcTERT–primer–template complex (Kd)[44].
The reactions were started by the addition of 3 μl of immunopurified telomerase eluent, incubated at 37 °C for 1 h, then terminated with 2 μl of […] and heat inactivated at 65 °C for 20 min. An equal volume of loading buffer (94% formamide, 0.1× TBE, 0.1% bromophenol blue, 0.1% xylene cyanol) was added to the reaction eluent. The samples were heat denatured for 10 min at 100 °C and loaded onto a 14% denaturing acrylamide gel (7 M urea, 1× TBE) and electrophoresed for 90 min at constant 38 W. Samples were imaged using a Typhoon phosphorimager (GE Healthcare). Percent primer extension was calculated with ImageQuant TL 8.2 by measuring the intensity of each product band and dividing by the total radioactivity in the lane or total products, as indicated in the figure legends.
The processivity was calculated as described[40],[67]. Repeat processivity from the direct telomerase extension assays was calculated as R1/2 (equivalent to the half-time for decay in an exponential time course), which represents the median length of DNA product formed, expressed in terms of number of telomere repeats. First, the total volume counts for each product band extend by one or more telomere repeats were obtained using Image Quant TL. The volume counts were then normalized by dividing by the number of radiolabeled guanosines incorporated into the extended products based on the number of repeats added, termed corrected volume (corr vol). The “percent left behind” (%LB) was calculated for each product band by summing the counts for that product band and for every product band below (shorter products), divided by the total counts for the lane, and then multiplied by 100. The natural log of (100−%LB) was calculated and then plotted vs. repeat number for each product length. A linear regression line was fit to the data to determine the slope of the line. The R1/2 value was calculated by dividing −ln(2) by the slope of each fitted line (R1/2 = −ln(2)/slope).
Supplementary Fig 8. IC50 values for telomerase processivity inhibition. Telomerase reactions were conducted with cellular relevant concentrations of all four natural dNTPs and increasing concentrations of the modified dNTP analog from 0 to 10,000 μM to calculate. (a) The natural log of (100-%LB) was plotted vs repeat number. A straight line was fit to the data and the R1/2 value was calculated by dividing –ln(2) by the slope of each line. Plots shown from one experiment are […]

[1] = fit of R 1/2 vs log(concentration), 8-oxo-dATP, replicates N1-N3

Sequence of telomerase (O14746 whole entry): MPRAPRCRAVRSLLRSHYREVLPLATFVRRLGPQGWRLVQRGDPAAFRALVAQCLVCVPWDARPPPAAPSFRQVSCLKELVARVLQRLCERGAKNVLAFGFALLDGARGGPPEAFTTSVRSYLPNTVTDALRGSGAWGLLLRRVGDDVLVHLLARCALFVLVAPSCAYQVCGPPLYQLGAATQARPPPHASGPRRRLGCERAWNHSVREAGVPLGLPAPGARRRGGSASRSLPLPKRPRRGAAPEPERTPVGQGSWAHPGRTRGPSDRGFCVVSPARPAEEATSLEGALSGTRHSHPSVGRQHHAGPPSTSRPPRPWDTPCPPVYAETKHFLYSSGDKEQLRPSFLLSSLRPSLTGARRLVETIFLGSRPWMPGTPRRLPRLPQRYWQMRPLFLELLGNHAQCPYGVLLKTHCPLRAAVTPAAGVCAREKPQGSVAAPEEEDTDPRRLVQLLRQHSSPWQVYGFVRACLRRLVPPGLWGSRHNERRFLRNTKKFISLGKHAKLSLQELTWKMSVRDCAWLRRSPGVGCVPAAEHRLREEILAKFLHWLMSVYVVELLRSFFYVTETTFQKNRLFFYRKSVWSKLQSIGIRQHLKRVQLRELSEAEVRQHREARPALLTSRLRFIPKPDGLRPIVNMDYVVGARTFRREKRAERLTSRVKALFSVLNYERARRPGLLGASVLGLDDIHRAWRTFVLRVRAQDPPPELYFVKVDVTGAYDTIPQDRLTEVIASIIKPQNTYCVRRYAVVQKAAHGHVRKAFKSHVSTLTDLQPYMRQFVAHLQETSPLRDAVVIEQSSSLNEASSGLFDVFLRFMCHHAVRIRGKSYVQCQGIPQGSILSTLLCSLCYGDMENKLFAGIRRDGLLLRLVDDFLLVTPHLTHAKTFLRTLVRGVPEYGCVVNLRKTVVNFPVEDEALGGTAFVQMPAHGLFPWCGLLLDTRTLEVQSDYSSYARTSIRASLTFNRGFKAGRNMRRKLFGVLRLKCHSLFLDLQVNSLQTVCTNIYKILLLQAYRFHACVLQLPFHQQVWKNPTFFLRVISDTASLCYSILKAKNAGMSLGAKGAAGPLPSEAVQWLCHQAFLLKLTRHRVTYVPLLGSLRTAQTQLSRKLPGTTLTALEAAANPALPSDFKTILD

Nc1ncnc2c1[nH]c(=O)n2C1CC(O)C(COP(=O)(O)OP(=O)(O)OP(=O)(O)O)O1 (centres unmarked) [8-oxo-dATP]
YIntercept (line fit of ln(100-%LB) vs # telomere repeats) (8-oxo-dATP 31μM): 3.85 and 3.01 and 3.93 | ln(100-%LB) (8-oxo-dATP 31μM, telomere repeat 3): 2.65 and 1.66 and 2.57 | ln(100-%LB) (8-oxo-dATP 31μM, telomere repeat 4): 2.41 and 1.27 and 2.30 | Processivity R 1/2 (8-oxo-dATP 31.25 μM): 2.10 (2×) and 1.89 | YIntercept (line fit of ln(100-%LB) vs # telomere repeats) (8-oxo-dATP 62μM): 3.73 and 4.08 and 3.84 | ln(100-%LB) (8-oxo-dATP 62μM, telomere repeat 2): 3.20 | ln(100-%LB) (8-oxo-dATP 62μM, telomere repeat 3): 2.53 and 2.54 and 2.74 | ln(100-%LB) (8-oxo-dATP 62μM, telomere repeat 4): 2.27 and 2.24 and 2.50 | ln(100-%LB) (8-oxo-dATP 62μM, telomere repeat 5): 2.02 and 1.94 and 2.24 | ln(100-%LB) (8-oxo-dATP 62μM, telomere repeat 6): 1.71 and 1.56 and 1.91 | ln(100-%LB) (8-oxo-dATP 62μM, telomere repeat 7): 1.38 and 1.06 and 1.53 | ln(100-%LB) (8-oxo-dATP 62μM, telomere repeat 8): 1.13 and 0.68 and 1.26 | Processivity R 1/2 (8-oxo-dATP 62.5 μM): 1.60 (2×) and 2.26 | YIntercept (line fit of ln(100-%LB) vs # telomere repeats) (8-oxo-dATP 250μM): 3.94 and 3.80 and 3.85 | Processivity R 1/2 (8-oxo-dATP 250 μM): 1.82 (2×) and 2.54 | ln(100-%LB) (8-oxo-dATP 250μM, telomere repeat 2): 3.33 and 3.42 and 3.45 | ln(100-%LB) (8-oxo-dATP 250μM, telomere repeat 3): 2.64 and 2.77 and 2.84 | ln(100-%LB) (8-oxo-dATP 250μM, telomere repeat 4): 2.37 and 2.53 and 2.60 | ln(100-%LB) (8-oxo-dATP 250μM, telomere repeat 5): 2.09 and 2.29 and 2.37 | ln(100-%LB) (8-oxo-dATP 250μM, telomere repeat 6): 1.75 and 2.02 and 2.10 | ln(100-%LB) (8-oxo-dATP 250μM, telomere repeat 7): 1.29 and 1.68 and 1.81 | ln(100-%LB) (8-oxo-dATP 250μM, telomere repeat 8): 0.96 and 1.40 and 1.57 | ln(100-%LB) (8-oxo-dATP 250μM, telomere repeat 9): 0.67 and 1.15 and 1.32 | YIntercept (line fit of ln(100-%LB) vs # telomere repeats) (8-oxo-dATP 500μM): 3.61 and 4.18 and 3.88 | Processivity R 1/2 (8-oxo-dATP 500 μM): 1.42 (2×) and 2.03 | ln(100-%LB) (8-oxo-dATP 500μM, telomere repeat 2): 3.10 and 3.59 and 3.36 | ln(100-%LB) (8-oxo-dATP 500μM, telomere repeat 3): 2.50 and 3.01 and 2.60 | ln(100-%LB) (8-oxo-dATP 500μM, telomere repeat 4): 2.24 and 2.80 and 2.29 | ln(100-%LB) (8-oxo-dATP 500μM, telomere repeat 5): 1.94 and 2.56 and 2.01 | ln(100-%LB) (8-oxo-dATP 500μM, telomere repeat 6): 1.62 and 2.28 and 1.70 | ln(100-%LB) (8-oxo-dATP 500μM, telomere repeat 7): 1.26 and 1.91 and 1.22 | ln(100-%LB) (8-oxo-dATP 500μM, telomere repeat 8): 0.97 and 1.63 and 0.93 | YIntercept (line fit of ln(100-%LB) vs # telomere repeats) (8-oxo-dATP 750μM): 4.26 and 4.00 and 3.87 | Processivity R 1/2 (8-oxo-dATP 750 μM): 1.36 (2×) and 2.25 | ln(100-%LB) (8-oxo-dATP 750μM, telomere repeat 2): 3.17 and 3.44 and 3.29 | ln(100-%LB) (8-oxo-dATP 750μM, telomere repeat 3): 2.50 and 2.85 and 2.65 | ln(100-%LB) (8-oxo-dATP 750μM, telomere repeat 4): 2.17 and 2.63 and 2.39 | ln(100-%LB) (8-oxo-dATP 750μM, telomere repeat 5): 1.81 and 2.42 and 2.15 | ln(100-%LB) (8-oxo-dATP 750μM, telomere repeat 6): 1.40 and 2.17 and 1.87 | YIntercept (line fit of ln(100-%LB) vs # telomere repeats) (8-oxo-dATP 1000μM): 4.48 and 4.47 and 4.44 | Processivity R 1/2 (8-oxo-dATP 1000 μM): 0.53 (2×) and 0.83 | YIntercept (line fit of ln(100-%LB) vs # telomere repeats) (8-oxo-dATP 1500μM): 5.00 and 4.48 and 4.84 | Processivity R 1/2 (8-oxo-dATP 1500 μM): 0.00 | Processivity R 1/2 (8-oxo-dATP 2000 μM): 0.00 | IC50 (cellular relevant natural dNTPs, modified dNTP titrated 0 to 10,000 μM, based on repeat processivity, mean ± SD, read-out: Telomerase processivity IC50): 946 ± 49 µM | LogIC50 (fit of R 1/2 vs log(concentration μM), 8-oxo-dATP, replicates N1-N3): 2.95 and 2.99 (2×) | Bottom (best-fit value) [1]: -0.12 and 0.69 and -0.000954 | HillSlope [1]: -4.30 and -46.77 and -16.13 | Span (best-fit value) [1]: 1.94 and 1.65 and 2.29 | Top (best-fit value) [1]: 1.81 and 2.33 and 2.29 | IC50 (log of processivity IC50 (concentration in μM), Supplementary Fig 8b, read-out: Log IC50 (converted)): 794 µM | IC50 (repeat processivity R 1/2, 8-oxo-dATP, mean of N1-N3, read-out: Mean IC50): 946 µM | IC50 (repeat processivity R 1/2, 8-oxo-dATP, single replicates N1-N3, read-out: IC50): 890 µM and 982 µM and 966 µM
